Reference: BindingDB's records for patent US12011444 (Idorsia Pharmaceuticals, 2024)

Key:
[1] = target: Prostaglandin E2 receptor EP4 subtype (Homo sapiens, UniProt P35408); assay: hEP4 cAMP Assay
Protocol: Plate is pre-incubated 45 minutes at room temperature. Subsequently, 2.5 microliters of PGE2 (final conc. 6 nM) are transferred into the assay plate. Plate is incubated 30 minutes at room temperature.

[2] = target: Prostaglandin E2 receptor EP2 subtype (Homo sapiens, UniProt P43116); assay: hEP2 cAMP Assay
Prostaglandin E2 receptor EP2 subtype, sequence (P43116 whole entry): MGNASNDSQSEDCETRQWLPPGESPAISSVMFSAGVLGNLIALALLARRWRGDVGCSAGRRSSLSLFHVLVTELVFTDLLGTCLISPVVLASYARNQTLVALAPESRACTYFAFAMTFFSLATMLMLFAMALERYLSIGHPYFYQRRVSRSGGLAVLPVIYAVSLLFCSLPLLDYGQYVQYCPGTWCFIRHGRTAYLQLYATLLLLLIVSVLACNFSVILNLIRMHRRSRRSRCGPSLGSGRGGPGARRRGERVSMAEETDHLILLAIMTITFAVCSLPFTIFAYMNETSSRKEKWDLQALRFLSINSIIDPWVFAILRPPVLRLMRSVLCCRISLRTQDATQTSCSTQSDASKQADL
Protocol: Plate is pre-incubated 45 minutes at room temperature. […] Plate is incubated 30 minutes at room temperature. […] For each compound concentration the percentage of cAMP compared to DMSO control value as average±STDEV (each concentration is measured in duplicate) is calculated.

Prostaglandin E2 receptor EP4 subtype, sequence (P35408 whole entry): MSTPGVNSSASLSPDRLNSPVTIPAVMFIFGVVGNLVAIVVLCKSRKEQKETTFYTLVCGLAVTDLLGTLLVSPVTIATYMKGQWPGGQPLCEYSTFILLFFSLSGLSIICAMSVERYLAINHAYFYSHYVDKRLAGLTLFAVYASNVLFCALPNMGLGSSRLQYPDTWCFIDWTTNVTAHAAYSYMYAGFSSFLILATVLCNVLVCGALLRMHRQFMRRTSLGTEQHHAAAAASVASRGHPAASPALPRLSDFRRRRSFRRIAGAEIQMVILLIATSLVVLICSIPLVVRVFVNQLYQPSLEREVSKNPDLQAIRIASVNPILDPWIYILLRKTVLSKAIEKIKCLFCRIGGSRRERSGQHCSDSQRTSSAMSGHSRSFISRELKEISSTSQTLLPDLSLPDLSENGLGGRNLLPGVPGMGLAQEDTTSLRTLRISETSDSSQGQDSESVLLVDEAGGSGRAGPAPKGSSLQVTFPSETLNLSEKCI

| SMILES | IC50 [1] | IC50 [2] |
| --- | --- | --- |
| Cc1cc(F)cc2c1cc(C)n2CCNc1cc(-c2cccc(-n3cccn3)c2)ncn1 [US12011444, Example 729] | 783 nM | 45 nM |
| CCOc1cc(-c2cc(NCCn3c(C)cc4c(OC)ccc(F)c43)ncn2)ccc1C(=O)NOCc1ccccc1 [US12011444, Example 766] | 80 nM | 57 nM |
| COc1cc(F)cc2c1cc(C)n2CCNc1cc(-c2cc(O)cs2)ncn1 [US12011444, Example 801] | 139 nM | 20 nM |
| COc1cc(F)c(F)c2c1cc(C)n2CCNc1cc(-c2ccc3oc(C)nc3c2)ncn1 [US12011444, Example 689] | 558 nM | 211 nM |
| Cc1ccc(F)c2c1cc(C)n2CCNc1cc(-c2ccc3c(c2)CNC3=O)ncn1 [US12011444, Example 65] | 697 nM | 41 nM |
| CCOc1cc(-c2cc(NCCn3c(C)cc4c(C)ccc(F)c43)ncn2)ccc1C(=O)NOCCO [US12011444, Example 771] | 310 nM | 19 nM |
| CCOc1cc(-c2cc(NCCn3c(C)cc4c(OC)ccc(F)c43)ncn2)ccc1C(=O)NOCCO [US12011444, Example 769] | 259 nM | 11 nM |
| COc1ccc(F)c2c1cc(C)n2CCNc1cc(-c2ccc(C(=O)O)c(N)c2)ncn1 [US12011444, Example 214] | 786 nM | 38 nM |
| Cc1cc(F)cc2c1cc(C)n2CCNc1cc(-c2ccc(C(=O)O)c(NCC(F)(F)F)c2)ncn1 [US12011444, Example 559] | 247 nM | 4 nM |
| COc1ccc(F)c2c1cc(C)n2CCNc1cc(-c2ccc(C(=O)O)c(C(C)(C)C)c2)ncn1 [US12011444, Example 535] | 136 nM | 68 nM |
